“And” between values parts separate entries of the source, which are not always exact repeats. Equal values may be shown once.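 A five-concentration, 48-hour dose response in 96-well plates underlies each endpoint, interpolated linearly between surrounding concentrations. GI50 is the concentration that inhibits growth by half. At the TGI there is no net growth.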
How the values were obtained:
Test in all cases: NCI anticancer screen, dose series, 48 h
RPMI-8226 leukemia = system: RPMI-8226 leukemia
HCC-2998 colon = system: HCC-2998 colon
CAKI-1 renal = system: CAKI-1 renal
LOX IMVI melanoma = system: LOX IMVI melanoma
HOP-92 NSCLC = system: HOP-92 NSCLC
MOLT-4 leukemia = system: MOLT-4 leukemia
CCRF-CEM leukemia = system: CCRF-CEM leukemia
COLO 205 colon = system: COLO 205 colon
SF-268 CNS = system: SF-268 CNS
SNB-75 CNS = system: SNB-75 CNS

CC1NC(=O)CC(c2ccccc2)N(N=O)C1c1ccccc1 (configuration not stated)
TGI (RPMI-8226 leukemia): 90.8 µM
TGI (HCC-2998 colon): > 100 µM
TGI (CAKI-1 renal): > 100 µM
TGI (LOX IMVI melanoma): > 100 µM
TGI (HOP-92 NSCLC): > 100 µM
TGI (MOLT-4 leukemia): > 100 µM
TGI (CCRF-CEM leukemia): 71.6 µM
TGI (COLO 205 colon): > 72.9 µM
TGI (SF-268 CNS): > 100 µM
TGI (SNB-75 CNS): > 65.2 µM

Nc1cc2[nH]c(=O)c(=O)[nH]c2cc1N
TGI (RPMI-8226 leukemia): > 100 µM
TGI (HCC-2998 colon): > 100 µM
TGI (CAKI-1 renal): > 100 µM
TGI (LOX IMVI melanoma): > 100 µM
TGI (HOP-92 NSCLC): > 100 µM
TGI (MOLT-4 leukemia): > 100 µM
TGI (CCRF-CEM leukemia): > 100 µM
TGI (COLO 205 colon): > 100 µM
TGI (SF-268 CNS): > 100 µM
TGI (SNB-75 CNS): > 100 µM

COc1cc(C(=O)N(Cc2cccnc2)C(=S)N(Cc2cccnc2)C(=O)c2cc(OC)c(OC)c(OC)c2)cc(OC)c1OC
TGI (RPMI-8226 leukemia): > 100 µM
TGI (HCC-2998 colon): 62.2 µM
TGI (CAKI-1 renal): > 100 µM
TGI (LOX IMVI melanoma): > 100 µM
TGI (HOP-92 NSCLC): 52.2 µM
TGI (MOLT-4 leukemia): > 100 µM
TGI (CCRF-CEM leukemia): > 100 µM
TGI (COLO 205 colon): > 100 µM
TGI (SF-268 CNS): > 100 µM
TGI (SNB-75 CNS): 56.7 µM

Cc1ccc(N=Nc2c(O)ccc3cc(S(=O)(=O)O)cc(S(=O)(=O)O)c23)cc1
TGI (HCC-2998 colon): > 100 µM
TGI (CAKI-1 renal): > 100 µM
TGI (HOP-92 NSCLC): > 100 µM
TGI (MOLT-4 leukemia): > 100 µM
TGI (CCRF-CEM leukemia): > 100 µM
TGI (COLO 205 colon): > 100 µM
TGI (SF-268 CNS): > 100 µM
TGI (SNB-75 CNS): > 100 µM

O=C1/C(=N/O)Cc2c(Br)ccc(Br)c21
TGI (RPMI-8226 leukemia): > 100 µM
TGI (HCC-2998 colon): > 100 µM
TGI (CAKI-1 renal): > 100 µM
TGI (LOX IMVI melanoma): > 100 µM
TGI (HOP-92 NSCLC): > 100 µM
TGI (MOLT-4 leukemia): 82.4 µM
TGI (CCRF-CEM leukemia): > 100 µM
TGI (SF-268 CNS): > 100 µM
TGI (SNB-75 CNS): > 100 µM

C[N+](C)(C)CC1CCCCCCCCCCC1=O (configuration not stated)
TGI (RPMI-8226 leukemia): > 100 µM
TGI (HCC-2998 colon): > 100 µM
TGI (CAKI-1 renal): > 100 µM
TGI (LOX IMVI melanoma): > 100 µM
TGI (HOP-92 NSCLC): > 100 µM
TGI (MOLT-4 leukemia): > 100 µM
TGI (CCRF-CEM leukemia): > 100 µM
TGI (COLO 205 colon): > 100 µM
TGI (SF-268 CNS): > 100 µM
TGI (SNB-75 CNS): > 100 µM

CSc1ccc2c(cc1=O)[C@@H](NC(=O)c1ccc(N)cc1)CCc1cc(O)c(O)c(O)c1-2
TGI (RPMI-8226 leukemia): > 75 µM and 94.2 µM
TGI (HCC-2998 colon): 32.9 µM and 37.3 µM
GI50 (CAKI-1 renal): > 75 µM and 25.8 µM
TGI (CAKI-1 renal): > 75 µM and 53.2 µM
GI50 (LOX IMVI melanoma): 12 µM and 4.07 µM
TGI (LOX IMVI melanoma): > 75 µM and 22.9 µM
TGI (HOP-92 NSCLC): > 100 µM
TGI (MOLT-4 leukemia): > 100 µM
TGI (CCRF-CEM leukemia): > 100 µM
GI50 (COLO 205 colon): 31.7 µM and 4.04 µM
TGI (COLO 205 colon): > 100 µM
TGI (SF-268 CNS): 47.8 µM and > 100 µM
TGI (SNB-75 CNS): > 100 µM

O=C(O)c1ccc([N+](=O)[O-])c2cc3cnccc3nc12
TGI (RPMI-8226 leukemia): > 100 µM
TGI (HCC-2998 colon): 50.3 µM
TGI (HOP-92 NSCLC): 45.8 µM
TGI (MOLT-4 leukemia): 29.7 µM
TGI (CCRF-CEM leukemia): 9.03 µM
TGI (COLO 205 colon): 40.4 µM
TGI (SNB-75 CNS): 34.2 µM

COC1C=CC(O)C(CO)O1 (configuration not stated)
TGI (HCC-2998 colon): > 100 µM
TGI (LOX IMVI melanoma): > 100 µM
TGI (HOP-92 NSCLC): > 100 µM
TGI (MOLT-4 leukemia): > 100 µM
TGI (CCRF-CEM leukemia): > 100 µM
TGI (SNB-75 CNS): > 100 µM

Cc1ccc(-c2c(C#N)c(-c3ccc(Cl)cc3)c(C#N)c(=O)n2NS(=O)(=O)c2ccc(C)cc2)cc1
TGI (HCC-2998 colon): 74.9 µM
TGI (CAKI-1 renal): > 100 µM
TGI (LOX IMVI melanoma): 58 µM
TGI (HOP-92 NSCLC): > 100 µM
TGI (MOLT-4 leukemia): 40.6 µM
TGI (CCRF-CEM leukemia): 51.8 µM
TGI (COLO 205 colon): > 100 µM
TGI (SF-268 CNS): > 100 µM
TGI (SNB-75 CNS): > 100 µM

Cc1cn(C2CC(N(O)Cc3ccccc3)C(CO[Si](C)(C)C(C)(C)C)O2)c(=O)[nH]c1=O (configuration not stated)
TGI (RPMI-8226 leukemia): > 100 µM
TGI (HCC-2998 colon): 41.7 µM and 34.3 µM
TGI (CAKI-1 renal): 76.1 µM and 31.1 µM
TGI (HOP-92 NSCLC): 36.8 µM and 29.6 µM
TGI (MOLT-4 leukemia): > 100 µM
TGI (CCRF-CEM leukemia): > 100 µM
TGI (COLO 205 colon): 35.8 µM and 32.6 µM
GI50 (SF-268 CNS): 34.6 µM and 16.7 µM
TGI (SF-268 CNS): > 100 µM and 31 µM
GI50 (SNB-75 CNS): 39 µM and 16.2 µM
TGI (SNB-75 CNS): > 100 µM and 29.8 µM

CNc1ccc(C(=O)CC(O)CCC(C)C2OC(=O)CC(O)CC(=O)CC(O)CC(O)CC(O)CC(O)CC3(O)CC(O)C(C(=O)OC)C(CC(O[C@@H]4O[C@H](C)[C@@H](O)[C@H](N)[C@@H]4O)/C=C/C=C/C=C/C=C/C=C/C=C/C=C/C2C)O3)cc1 (some centres not stated)
GI50 (RPMI-8226 leukemia): 3.57 µM
TGI (RPMI-8226 leukemia): 54.5 µM
GI50 (HCC-2998 colon): 3.25 µM
TGI (HCC-2998 colon): 12.3 µM
GI50 (CAKI-1 renal): 1.88 µM
TGI (CAKI-1 renal): 4.89 µM
GI50 (LOX IMVI melanoma): 3.3 µM
TGI (LOX IMVI melanoma): > 100 µM
GI50 (HOP-92 NSCLC): 3.27 µM
TGI (HOP-92 NSCLC): > 100 µM
GI50 (MOLT-4 leukemia): 2.62 µM
TGI (MOLT-4 leukemia): 6.31 µM
GI50 (COLO 205 colon): 2.69 µM
TGI (COLO 205 colon): 6.6 µM
GI50 (SF-268 CNS): 2.82 µM
TGI (SF-268 CNS): 7.46 µM
GI50 (SNB-75 CNS): 2.83 µM
TGI (SNB-75 CNS): 30.8 µM

O=c1cc(-c2ccc(F)cc2)[nH]c2ncc(Cl)cc12
TGI (RPMI-8226 leukemia): 62.4 µM
TGI (HCC-2998 colon): > 100 µM
TGI (CAKI-1 renal): > 100 µM
TGI (LOX IMVI melanoma): > 100 µM
TGI (HOP-92 NSCLC): 65.4 µM
TGI (MOLT-4 leukemia): > 85.6 µM
TGI (CCRF-CEM leukemia): 77.1 µM
TGI (COLO 205 colon): > 100 µM
TGI (SF-268 CNS): > 100 µM
TGI (SNB-75 CNS): 48.7 µM

Cc1cc(S(=O)(=O)N=C2N(Cc3ccccc3)CCN2Cc2ccccc2)c(S)cc1Cl
TGI (RPMI-8226 leukemia): > 100 µM
TGI (HCC-2998 colon): > 100 µM
TGI (CAKI-1 renal): > 100 µM
TGI (LOX IMVI melanoma): > 100 µM
TGI (HOP-92 NSCLC): > 100 µM
TGI (MOLT-4 leukemia): > 100 µM
TGI (CCRF-CEM leukemia): > 100 µM
TGI (COLO 205 colon): > 100 µM
TGI (SF-268 CNS): > 100 µM
TGI (SNB-75 CNS): > 100 µM

C=CC(CCc1ccc(C(=O)OCC)cc1)c1c(N)nc(N)[nH]c1=O (configuration not stated)
TGI (RPMI-8226 leukemia): > 100 µM
TGI (HCC-2998 colon): > 100 µM
TGI (CAKI-1 renal): > 100 µM
TGI (LOX IMVI melanoma): > 100 µM
TGI (HOP-92 NSCLC): 83.8 µM
TGI (MOLT-4 leukemia): > 100 µM
TGI (CCRF-CEM leukemia): > 100 µM
TGI (COLO 205 colon): > 100 µM
TGI (SF-268 CNS): > 100 µM
TGI (SNB-75 CNS): > 100 µM

O=C(NI1OC(=O)c2ccccc21)c1ccc(Cl)cc1
TGI (RPMI-8226 leukemia): > 100 µM
TGI (HCC-2998 colon): > 100 µM
TGI (CAKI-1 renal): > 100 µM
TGI (LOX IMVI melanoma): > 100 µM
TGI (HOP-92 NSCLC): > 100 µM
TGI (CCRF-CEM leukemia): > 100 µM
TGI (COLO 205 colon): > 100 µM
TGI (SF-268 CNS): > 100 µM
TGI (SNB-75 CNS): > 100 µM

CCOC(=O)/C=C(/C(=O)OCC)n1ccc(=O)n(Cc2cn(COCCOC(C)=O)nn2)c1=O
TGI (RPMI-8226 leukemia): 50.3 µM
TGI (HCC-2998 colon): 36.2 µM
TGI (CAKI-1 renal): 14 µM
TGI (LOX IMVI melanoma): 41.9 µM
TGI (HOP-92 NSCLC): 5.04 µM
TGI (MOLT-4 leukemia): 41.3 µM
TGI (CCRF-CEM leukemia): 4.8 µM
TGI (COLO 205 colon): > 100 µM
TGI (SF-268 CNS): 33.5 µM
TGI (SNB-75 CNS): > 100 µM

COc1cc(/C=C(\C#N)C(N)=O)cc(Br)c1O
TGI (RPMI-8226 leukemia): > 100 µM
TGI (HCC-2998 colon): > 100 µM
TGI (CAKI-1 renal): > 100 µM
TGI (LOX IMVI melanoma): 59.2 µM and > 100 µM
GI50 (HOP-92 NSCLC): 21.8 µM and > 100 µM
TGI (HOP-92 NSCLC): 93.3 µM and > 100 µM
TGI (MOLT-4 leukemia): > 100 µM
TGI (CCRF-CEM leukemia): > 100 µM
GI50 (COLO 205 colon): 73.8 µM and > 100 µM
TGI (COLO 205 colon): > 100 µM
TGI (SF-268 CNS): > 100 µM
TGI (SNB-75 CNS): 14.4 µM and > 100 µM

Cn1c2c(c3ccccc31)CC1c3c(c4ccccc4n3C)CC21 (configuration not stated)
TGI (RPMI-8226 leukemia): > 100 µM
TGI (HCC-2998 colon): > 100 µM
TGI (CAKI-1 renal): > 100 µM
TGI (LOX IMVI melanoma): > 100 µM
TGI (HOP-92 NSCLC): > 100 µM
TGI (MOLT-4 leukemia): > 100 µM
TGI (CCRF-CEM leukemia): > 100 µM
TGI (COLO 205 colon): > 100 µM
TGI (SF-268 CNS): > 100 µM
TGI (SNB-75 CNS): > 100 µM

CCOc1cn(C2CC(O)C(CO)O2)c(=O)[nH]c1=O (configuration not stated)
TGI (RPMI-8226 leukemia): > 100 µM
TGI (HCC-2998 colon): > 100 µM
TGI (CAKI-1 renal): > 100 µM
TGI (LOX IMVI melanoma): > 100 µM
TGI (HOP-92 NSCLC): > 100 µM
TGI (MOLT-4 leukemia): > 100 µM
TGI (CCRF-CEM leukemia): > 100 µM
TGI (COLO 205 colon): > 100 µM
TGI (SF-268 CNS): > 100 µM
TGI (SNB-75 CNS): > 100 µM

— PubChem BioAssay (NCI)
